Where “and” joins values, the source holds several entries; their conditions need not be identical. Equal entries are not always repeated.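 Where inhibition never reached the appropriate level, the endpoint shown equals the highest concentration tested. Otherwise, values were interpolated linearly from a five-concentration, 48-hour dose response in 96-well plates. Abbreviation: GI50, concentration required for 50% inhibition of growth. TGI is the concentration that stops growth completely.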
Assays:
Assay in all cases: inhibition of tumour cell growth, NCI panel, 48 h
RPMI-8226 leukemia = test system: RPMI-8226 leukemia
OVCAR-3 ovarian = test system: OVCAR-3 ovarian
CCRF-CEM leukemia = test system: CCRF-CEM leukemia
PC-3 prostate = test system: PC-3 prostate
NCI-H226 lung = test system: NCI-H226 lung
OVCAR-5 ovarian = test system: OVCAR-5 ovarian
OVCAR-4 ovarian = test system: OVCAR-4 ovarian
M14 melanoma = test system: M14 melanoma
T-47D breast = test system: T-47D breast
NCI-H23 lung = test system: NCI-H23 lung

Compound | GI50 (RPMI-8226 leukemia) [µM] | TGI (RPMI-8226 leukemia) | GI50 (OVCAR-3 ovarian) | TGI (OVCAR-3 ovarian) | GI50 (CCRF-CEM leukemia) [µM] | TGI (CCRF-CEM leukemia) | GI50 (PC-3 prostate) | TGI (PC-3 prostate) | GI50 (NCI-H226 lung) | TGI (NCI-H226 lung) | GI50 (OVCAR-5 ovarian) [µM] | TGI (OVCAR-5 ovarian) [µM] | GI50 (OVCAR-4 ovarian) | TGI (OVCAR-4 ovarian) | GI50 (M14 melanoma) | TGI (M14 melanoma) | GI50 (T-47D breast) | TGI (T-47D breast) | GI50 (NCI-H23 lung) | TGI (NCI-H23 lung)
CCN(CC)CCNC(Cc1ccccc1)c1ccc(OCc2ccccc2)cc1 (stereo not drawn) | 2.4 | 6.84 µM | 11.8 µM | 25.8 µM | 3.19 | 13.7 µM | 3.68 µM | 15.7 µM | 13.8 µM | 34.8 µM | 7.02 | 22.4 | 5.42 µM | 19.4 µM | 2.07 µM | 5.09 µM |  |  |  | 
Nc1ncc(-c2cnn(C3CCNCC3)c2)cc1-c1nc2cc(Cl)ccc2o1 |  |  | 1.73 µM | 3.26 µM | 0.222 | 0.541 µM | 1.29 µM | 2.77 µM |  |  | 1.77 | 3.22 |  |  | 1.79 µM | 3.25 µM | 1.62 µM | 3.34 µM | 1.62 µM | 3.14 µM
NC(CSC(c1ccccc1)(c1ccccc1)c1ccccc1)C(=O)NCC(=O)O (stereo not drawn) | 3.42 | 24.5 µM | 5.15 µM | 37.2 µM | 3.68 | > 100 µM | 5.25 µM | > 100 µM | 23.4 µM | > 100 µM | 22.5 | > 100 | 17.4 µM | 95.6 µM | 3.73 µM | 23.2 µM | 11.6 µM | > 100 µM |  | 
Cc1ccc(S(=O)(=O)OC2CC=CC2)cc1 |  | > 100 µM |  | > 100 µM |  | > 100 µM |  |  |  | > 100 µM |  | > 100 |  | > 100 µM |  | > 100 µM |  |  |  | 
O=C1N/C(=C\[N+](=O)[O-])c2ccccc21 |  | > 100 µM |  | > 100 µM |  | > 100 µM |  |  |  | > 100 µM |  | > 100 |  | > 100 µM |  | > 100 µM |  |  |  | > 100 µM
CC1(O)C(C)(O)C2(C)O[Te]3(OC12C)OC1(C)C(C)(O)C(C)(O)C1(C)O3 (stereo not drawn) |  | 37.9 µM |  | 41.5 µM |  | 22.9 µM |  |  |  | 89.2 µM |  | 29.4 |  | 77.9 µM |  | > 100 µM |  |  |  | 29.7 µM
O=C(O)CSCCc1ccccc1 |  | > 100 µM |  | > 100 µM |  |  |  | > 100 µM |  | > 100 µM |  | > 100 |  | > 100 µM |  | > 100 µM |  | > 100 µM |  | > 100 µM
CCCCCCCCCCCCCCCCCCOC[C@H](COP(=O)(O)O[C@H]1[C@H](O)[C@@H](O)[C@H](O)C[C@H]1O)OC |  | 79.7 µM and 30.7 µM | > 100 µM and 16.9 µM | > 100 µM and 34.9 µM |  | 12.7 µM and 46 µM | 7.44 µM and 2.94 µM | 43.3 µM and 14.1 µM | > 100 µM and 24 µM | > 100 µM and 44.5 µM |  |  | > 100 µM and 16 µM | > 100 µM and 36.8 µM | > 100 µM and 12 µM | > 100 µM and 24.7 µM | > 100 µM and 16.9 µM | > 100 µM and 37.4 µM | > 100 µM and 19.3 µM | > 100 µM and 35 µM
CCOC(=O)[CH-]C(=O)C12CC3CC(CC(C3)C1)C2.CCOC(=O)[CH-]C(=O)C12CC3CC(CC(C3)C1)C2.CC[O-].CC[O-].[Ti+4] | > 100 | > 100 µM | > 100 µM | > 100 µM | > 100 | > 100 µM |  |  |  |  |  |  | > 100 µM | > 100 µM | > 100 µM | > 100 µM |  |  | > 100 µM | > 100 µM
